One experiment has as its target S1P1 (Homo sapiens (Human), UniProt P21453). Nature of the experiment: S1P1 agonist assay (Ec50 S1P1Ag).
Details: not given
The format is cell-based. The text has this: The exact dosage will depend upon the activity of the compound, mode of administration, on the therapy desired, form in which administered, the subject to be treated and the body weight of the subject to be treated, and the preference and experience of the physician or veterinarian in charge. S1P1 agonist bioactivity of the compounds of the invention can be determined by use of an in vitro assay system which measures the activation of S1P1, which can be expressed as EC50 values, as are well known in the art inhibitors of the invention can be determined by the method described in the Examples.
Sequence of S1P1 (P21453 whole entry): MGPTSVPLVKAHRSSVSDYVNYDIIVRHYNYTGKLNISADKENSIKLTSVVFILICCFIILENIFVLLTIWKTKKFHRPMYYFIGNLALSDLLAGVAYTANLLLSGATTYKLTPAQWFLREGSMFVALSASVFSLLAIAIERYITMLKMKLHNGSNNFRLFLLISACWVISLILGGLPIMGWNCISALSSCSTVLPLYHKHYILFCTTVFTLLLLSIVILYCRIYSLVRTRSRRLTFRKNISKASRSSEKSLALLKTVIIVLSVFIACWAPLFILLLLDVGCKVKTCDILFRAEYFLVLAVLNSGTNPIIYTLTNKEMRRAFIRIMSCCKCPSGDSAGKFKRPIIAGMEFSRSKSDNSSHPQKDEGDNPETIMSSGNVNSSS
As to `FC(F)(F)c1cc(-c2nc(-c3ccc(CN4CCCC4)cc3)no2)ccc1-c1ccccc1` [Compound 82], a half-maximal response (EC50) required 0.048 µM. That is a double-digit nanomolar value.
Compound `CCOc1ccc(-c2nc(-c3cccc4c3CCC4O)no2)cc1OCC` (stereo not shown) [Compound 215, 4-(5-(3,4-diethoxyphenyl)-1,2,4-oxadiazol-3-yl)-2,3-dihydro-1H-inden-1-ol] yielded a concentration giving a half-maximal response (EC50) of 0.0001 µM. Against the preceding compound, the EC50 is about 480-fold lower.
The same measure, in the same setting: as for `CCOc1ccc(-c2nc(-c3cccc4c3CCC4O)no2)cc1C(F)(F)F` (stereo not shown) [Compound 260, 4-(5-(4-ethoxy-3-(trifluoromethyl)phenyl)-1,2,4-oxadiazol-3-yl)-2,3-dihydro-1H-inden-1-ol], the figure is < 0.0005 µM; as for `CCOc1ccc(-c2nc(-c3ccc(CN(C)C)cc3C)no2)cc1OCC` [Compound 128], 0.0191 µM; as for `CCOc1ccc(-c2nc(-c3ccc4ccccc4c3)no2)cc1OCC` [Compound 212], 0.341 µM.
The compound `CCOc1ccc(-c2nc(-c3cccc4c3CCN4CCN(CC)CC)no2)cc1OCC` [Compound 232] had an EC50 of 0.0939 µM. This EC50 is about 3.6-fold lower than that of the compound before.
Consider `CCOc1ccc(-c2cc(-c3ccncc3)no2)cc1OCC` [Compound 269], for which it took 0.112 µM to reach a half-maximal effect (EC50).
Still for that read-out and setting: as for `Cc1cnccc1-c1noc(-c2ccc(C)c(C(F)(F)F)c2)n1` [Compound 68], the figure is 0.0377 µM.
Same read-out and setting: in the case of `CCOc1ccc(-c2nc(-c3ccnc(CNCCN(CC)CC)c3)no2)cc1OCC` [Compound 226] it was 0.0027 µM.
On the same count and under the same terms, in the case of `Cc1ccc(-c2nc(-c3ccnc(N)c3)no2)cc1C(F)(F)F` [Compound 69] it was 0.197 µM; in that of `c1cc(-c2noc(-c3ccc(C4CCCCC4)cc3)n2)ccn1` [Compound 56], 0.0834 µM; in that of `CCOc1ccc(-c2nc(-c3cccc(CN4CCCC4)c3)no2)cc1OCC` [Compound 77], 0.45 µM.
For `CCOc1ccc(-c2nc(-c3ccc(CNCCO)cc3C)no2)cc1OCC` [Compound 252], the EC50 turned out to be 0.0101 µM. Against the preceding compound, the EC50 is about 45-fold lower.
Still for that read-out and setting: as for `CCOc1ccc(-c2nc(-c3cccc(CN(C)C)c3)no2)cc1OCC` [Compound 78], the figure is 0.0452 µM; as for `c1ccc(Cc2nc(-c3ccncc3)no2)cc1` [Compound 105], 8.4 µM.
Turning to `CCn1nc(C)cc1-c1nc(-c2ccc(C)c(OC)c2)no1` [Compound 48], the EC50 amounted to 0.295 µM.
Same read-out and setting: in the case of `CCOc1ccc(-c2nc(-c3cccc4[nH]cc(CNC)c34)no2)cc1OCC` [Compound 233] it was 0.581 µM.
In turn, `CCOc1ccc(-c2nc(-c3cccc4[nH]cc(CN(C)CCO)c34)no2)cc1OCC` [Compound 221] yielded an EC50 of 1.4 µM.
`CCOc1ccc(-c2nc(-c3ccc(N4CCN(C)CC4)cc3C)no2)cc1OCC` [Compound 100] registered an EC50 of 0.0863 µM.
Still for that read-out and setting: in the case of `CCOc1cccc(-c2nc(-c3ccncc3C)no2)c1` [Compound 64] it was 0.228 µM; in that of `COc1cc(-c2noc(-c3ccncc3)n2)ccc1C` [Compound 44], 0.731 µM.
The same measure, in the same setting: in the case of `COc1cc(-c2nc(-c3cccnc3)no2)ccc1C` [Compound 75] it was 0.274 µM; in that of `CCOc1ccc(-c2nc(-c3ccc(OC(F)(F)F)cc3)no2)cc1OCC` [Compound 206], > 5 µM.
On to `CCOc1ccc(-c2nc(-c3cccc4[nH]cc(CN5CC[C@@H](O)C5)c34)no2)cc1OCC` [Compound 231], for which a half-maximal effect (EC50) was put at 0.12 µM.
Compound `CCOc1ccc(-c2nc(-c3ccc(CN(C)C)cc3)no2)cc1OCC` [Compound 81] had an EC50 of 0.123 µM.
On the same count and under the same terms, in the case of `CCOc1ccc(-c2nc(-c3cccc4[nH]cc(CNC(C)(C)CO)c34)no2)cc1OCC` [Compound 213] it was 0.636 µM; in that of `COc1cc(-c2nc(-c3ccc(C)c(OC)c3)no2)ccn1` [Compound 40], 0.621 µM.
The compound `CC(C)Oc1ccc(-c2ncc(-c3cccc4c3CCC4O)o2)cc1C#N` (stereo not shown) [Compound 270] showed an EC50 of 0.0025 µM.
`CCOc1ccc(-c2nc(-c3ccc(C#N)cc3C)no2)cc1OCC` [Compound 122]: a half-maximal effect (EC50) was put at 0.005 µM.
With `CCOc1ccc(-c2noc(-c3ccncc3)n2)cc1OCC` [Compound 257], the EC50 was 0.0073 µM. The EC50 values of the last two compounds are within 1.5-fold of each other.
Turning to `CCOc1ccc(-c2nc(-c3ccc(CN4CCCC4)cc3C)no2)cc1OCC` [Compound 125], the half-maximal effective concentration (EC50) came out at 0.171 µM.
`CCOc1cccc(-c2nc(-c3cncc(C)c3)no2)c1` [Compound 66] had an EC50 of 1.99 µM.
For `CCOc1ccc(-c2nc(-c3ccc(CCN4CCCC4)cc3)no2)cc1OCC` [Compound 191], the EC50 was determined as 0.0538 µM.
Take `CCOc1ccc(-c2nc(-c3cccc4c3CCC4O)no2)cc1C#N` (stereo not shown) [Compound 262, 2-ethoxy-5-(3-(1-hydroxy-2,3-dihydro-1H-inden-4-yl)-1,2,4-oxadiazol-5-yl)benzonitrile]: the half-maximal effective concentration (EC50) was < 0.0005 µM.
On the same count and under the same terms, in the case of `CCOc1ccc(-c2nc(-c3ccc4[nH]cc(CNCCN(CC)CC)c4c3)no2)cc1OCC` [Compound 224] it was 0.485 µM; in that of `Cc1ccc(-c2nc(-c3ccncc3)no2)cc1C(F)(F)F` [Compound 49], 0.487 µM.
On the same count and under the same terms, in the case of `COc1cc(-c2noc(-c3cc(Cl)nc(Cl)c3)n2)ccc1C` [Compound 45] it was 1.48 µM; in that of `CCOc1ccc(-c2nc(-c3nccc4ccccc34)no2)cc1OCC` [Compound 219], 0.013 µM; in that of `CCOc1ccc(-c2nc(-c3ccccn3)no2)cc1OCC` [Compound 33], 0.116 µM.
On the same count and under the same terms, in the case of `COc1cc(-c2noc(-c3cccnc3)n2)ccc1C` [Compound 24] it was 1.8 µM; in that of `CCOc1ccc(-c2nc(-c3ccc4[nH]cc(CNCCO)c4c3)no2)cc1OCC` [Compound 239], 0.867 µM.
For the compound `CCOc1ccc(-c2nc(-c3cncc(C(=O)OC)c3)no2)cc1OCC` [Compound 220], the EC50 was 0.028 µM.
Still for that read-out and setting: in the case of `CCOc1ccc(-c2nc(-c3cccc(Br)c3C)no2)cc1OCC` [Compound 121] it was 0.639 µM; in that of `CCOc1ccc(-c2nc(-c3cccc4c3CCC4NCCO)no2)cc1C(F)(F)F` (stereo not shown) [Compound 264, 2-(4-(5-(4-ethoxy-3-(trifluoromethyl)phenyl)-1,2,4-oxadiazol-3-yl)-2,3-dihydro-1H-inden-1-ylamino)ethanol], 0.008 µM.
Same read-out and setting: in the case of `CCOc1cccc(-c2nc(-c3ccnc(N)c3)no2)c1` [Compound 65] it was 0.319 µM; in that of `CCOc1ccc(-c2nc(-c3ccc(CO)c(C)c3)no2)cc1OCC` [Compound 200], 0.104 µM.
On the same count and under the same terms, as for `CCOc1ccc(-c2nc(-c3ccnc(CN4CC[C@@H](O)C4)c3)no2)cc1OCC` [Compound 235], the figure is 0.0821 µM; as for “4-(5-(4-isopropoxy-3-(trifluoromethyl)phenyl)-1,2,4-oxadiazol-3-yl)-2,3-dihydro-1H-inden-1-ol [Compound 261]”, < 0.0005 µM; as for `CCOc1ccc(-c2nc(-c3cccc4c3CCC4O)no2)cc1[N+](=O)[O-]` (stereo not shown) [Compound 266, 4-(5-(4-ethoxy-3-nitrophenyl)-1,2,4-oxadiazol-3-yl)-2,3-dihydro-1H-inden-1-ol], 0.224 µM.
With `CCOc1ccc(-c2nc(-c3cccc4c3CCN4CCO)no2)cc1OCC` [Compound 234], the EC50 is < 0.0005 µM.
The same measure, in the same setting: in the case of `COc1cc(-c2nc(-c3cncc(C)c3)no2)ccc1C` [Compound 74] it was 0.601 µM; in that of `CCC(c1ccccc1)c1nc(-c2ccncc2)no1` (stereo not shown) [Compound 109], 1.5 µM.
Same read-out and setting: in the case of `CCOc1ccc(-c2nc(-c3ccc4c(c3)NCC4)no2)cc1OCC` [Compound 150] it was 0.0042 µM.
In the case of `CCOc1ccc(-c2nc(-c3ccnc(C(=O)O)c3)no2)cc1OCC` [Compound 241], the EC50 stood at 0.0956 µM.
In turn, `CCOc1ccc(-c2nc(-c3cccc4[nH]cc(CNCCN(CC)CC)c34)no2)cc1OCC` [Compound 204] displayed an EC50 of 0.0322 µM.
Same read-out and setting: as for `CCOc1ccc(-c2nc(-c3cccc4c3CCC4NC(C)(C)CO)no2)cc1OCC` (stereo not shown) [Compound 216], the figure is 0.0915 µM; as for `CCOc1ccc(-c2nc(-c3ccc(C4=NCCN4)cc3)no2)cc1OCC` [Compound 181], 0.733 µM; as for `CCOc1ccc(-c2nc(-c3cccc4c3CCC4NCCN(CC)CC)no2)cc1OCC` (stereo not shown) [Compound 243], 0.0007 µM.
On the same count and under the same terms, as for `CCOc1ccc(-c2nc(-c3ccc(CN4C[C@H](O)C[C@H]4C(=O)N(C)C)cc3C)no2)cc1OCC` [Compound 210], the figure is 0.164 µM.
`CCOc1ccc(-c2nc(-c3ccnc(CNC(C)(C)CO)c3)no2)cc1OCC` [Compound 218] had an EC50 of 0.132 µM.
The compound `CCOc1ccc(-c2nc(-c3ccc4c(c3)CCN4CCCO)no2)cc1OCC` [Compound 258] had an EC50 of 0.001 µM. This EC50 lies about 130-fold lower than the previous one.
Take `CCOc1ccc(-c2nc(-c3cccc4c3CCC4=O)no2)cc1OCC` [Compound 227]: a half-maximal effect (EC50) was put at 0.0213 µM.
As for `FC(F)(F)c1cc(-c2nc(-c3cccnc3)no2)ccc1-c1ccccc1` [Compound 63], the EC50 was 0.129 µM.

The same experiment, now with this note: unit μM/uM.
On to `[O-][n+]1ccc(-c2nc(-c3ccc(C(F)(F)F)cc3)no2)cc1` [Compound 3], for which the midpoint of the response, the EC50, lay at 5.9 µM.
`COc1cc(-c2nc(-c3ccc(C(F)(F)F)cc3)no2)ccn1` [Compound 1] came in with an EC50 of 466 µM.
On the same count and under the same terms, as for `CC(C)(C)c1cc(-c2nc(-c3ccc(S(N)(=O)=O)cc3)no2)cc(C(C)(C)C)c1` [Compound 14], the figure is 12.3 µM; as for `CCOc1ccc(-c2nc(-c3ccc4[nH]cc(CN5CCCC5)c4c3)no2)cc1OCC` [Compound 223], 10 µM.
In turn, `FC(F)(F)c1ccc(-c2noc(-c3cccnc3)n2)cc1` [Compound 2] had an EC50 of 6.5 µM.
On the same count and under the same terms, as for `FC(F)(F)c1ccc(-c2noc(-c3ccnnc3)n2)cc1` [Compound 4], the figure is 7.8 µM.
Same read-out and setting: in the case of `CC(C)COc1ccc(-c2nc(-c3ccncc3)no2)cc1` [Compound 9] it was 68.4 µM; in that of `COc1cc(-c2noc(-c3cc4ccccc4s3)n2)ccc1C` [Compound 47], 31.8 µM; in that of `COc1cc(-c2nc(-c3ccc(S(N)(=O)=O)cc3)no2)ccn1` [Compound 19], 12 µM.
Still for that read-out and setting: as for `CCOc1ccc(-c2nc(-c3cccc(OC(F)(F)F)c3)no2)cc1OCC` [Compound 205], the figure is 10 µM.
